This is an account of results in US20020165130A1, “Method of sensitizing microbial cells to antimicrobial compounds” (priority 1998, published 2002).

For test [1], the system named is Staphylococcus aureus ATCC 6538. Briefly: Antibiotic disc assay (zones of inhibition), S. aureus. Format: cell-based. The conditions noted are these: for zone size, ciprofloxacin 5 μg disc: terpenoid at 0.5 mM in agar overlay. How it is done:
(§1) Erwinia sp. #351 was from Presque Isle Cultures, Presque Isle, Pa. Lactobacillus fermentum ATCC 14931, zygosaccharomyces bailii ATCC 60483 and E. coli ATCC 25922 (National Committee on Clinical Laboratory Standards antibiotic test strain) were from the American Type Culture Collection, Manassas, Va. Staphylococcus aureus ATCC 6538 and Enterococcus faecalis Bact. 4025 were obtained from the UW-Madison Department of Bacteriology culture collection. All bacteria except for L. fermentum were grown statically in screwcap tubes containing 10 ml Trypticase Soy Broth (BBL, Cockeysville, Md.) for 20-22 hours at 30° C. L. fermentum was grown statically in screwcap tubes containing 10 ml MRS broth (Difco) for 20-22 hours at 30° C. Cultures of Z. bailii were grown in 125 ml culture flasks containing 50 ml YM broth (Difco) on a rotary shaker set at 200 rpm for 20-22 hours at 25° C.
(§2) The activity of terpenoid compounds toward facilitating susceptibility to antibiotics was assessed using an antibiotic disc assay. For this assay, cells from an overnight growth were suspended to a known concentration in 0.5 ml 67 mM phosphate buffer, pH 7.0 and mixed with 4.5 ml 0.7% Iso-Sensitest agar (Oxoid, Basingstoke, Hampshire, England) overlay tempered to 50° C. Terpenoid compounds dissolved in absolute ethanol were added to the cell/agar overlay mixture yielding final concentrations of 0.5, 1.0 or 2.0 mM, depending on the experiment. The final concentration of ethanol in cell overlays was 0.5% and the final concentration of target cells was ca. 10^6 cfu/ml. After thorough vortexing, terpenoid-containing cell overlays were poured over hardened Iso-Sensitest agar (2% agar) plates and allowed to set. […] After incubation, zones of inhibition were measured with a ruler from the bottom of the plates.

Test [2] relates to Enterococcus faecalis Bact. 4025. Format: cell-based. The conditions noted are these: E. faecalis. How it is done:
as §1, §2

Where [3] appears, read: antibiotic disc with 1 mM apritone (A) in agar overlay.
Setting [4] is: antibiotic disc with 1 mM bisabolol (B) in agar overlay.
The mark [5] stands for this setting: antibiotic disc with 1 mM nerolidol (N) in agar overlay.
Where [6] appears, read: antibiotic disc, control (no sesquiterpenoid).
Where [7] appears, read: antibiotic disc with 0.5 mM apritone (A) in agar overlay.
Setting [8] is: antibiotic disc with 0.5 mM bisabolol (B) in agar overlay.
Where [9] appears, read: antibiotic disc with 0.5 mM nerolidol (N) in agar overlay.
[10] abbreviates: antibiotic disc with 2 mM apritone (A) in agar overlay.
The mark [11] stands for this setting: antibiotic disc with 2 mM bisabolol (B) in agar overlay.
The mark [12] stands for this setting: antibiotic disc with 2 mM nerolidol (N) in agar overlay.
The mark [13] stands for this setting: antibiotic disc, control (no sesquiterpenoid in agar overlay).

Read-outs that look alike come from different tables or passages of the source.

For `C=C1C2CCC(C2)C1(C)C` (stereo not shown) [camphene], the “zone size, ciprofloxacin 5 μg disc” value in test [1] was 22 mm.

In the case of `CC12CCC(CC1)C(C)(C)O2` [cineole], the “zone size, ciprofloxacin 5 μg disc” value in test [1] worked out at 23 mm.

Regarding `CC(C)=CCCC(C)=CC=O` [citral], the “zone size, ciprofloxacin 5 μg disc” value in test [1] was 22 mm.

Consider `CC(C)=CCCC(C)CC=O` (stereo not shown) [citronellal], for which the “zone size, ciprofloxacin 5 μg disc” value in test [1] stood at 22 mm.

For `CC(C)=CCCC(C)CCO` (stereo not shown) [citronellol], the “zone size, ciprofloxacin 5 μg disc” value in test [1] is 22.5 mm.

As for `CCC[C@@H]1C[C@@H](C(=O)N[C@@H]([C@H]2O[C@H](SC)[C@H](O)[C@@H](O)[C@H]2O)[C@H](C)Cl)N(C)C1` [clindamycin], the “Diameters of zones of inhibition” value in test [2] (setting [3]) stood at 12 millimeters; in test [2] (setting [4]), 11 millimeters; in test [2] (setting [5]) it was 11 millimeters; in test [2] (setting [6]), 12 millimeters; in test [1] (setting [7]), 22 millimeters; in test [1] (setting [8]), 24.5 millimeters. Also, the “Diameters of zones of inhibition” value came out at 23.5 millimeters in test [1] (setting [9]); 25 millimeters in test [1] (setting [3]); 27 millimeters in test [1] (setting [4]); 31.5 millimeters in test [1] (setting [5]); 27.5 millimeters in test [1] (setting [10]); 32 millimeters in test [1] (setting [11]). In addition, the “Diameters of zones of inhibition” value came to 35.5 millimeters in test [1] (setting [12]) and 22 millimeters in test [1] (setting [13]).

In the case of `CC[C@H]1OC(=O)[C@H](C)[C@@H](O[C@H]2C[C@@](C)(OC)[C@@H](O)[C@H](C)O2)[C@H](C)[C@@H](O[C@@H]2O[C@H](C)C[C@H](N(C)C)[C@H]2O)[C@](C)(O)C[C@@H](C)C(=O)[C@H](C)[C@@H](O)[C@]1(C)O` [erythromycin], the “Diameters of zones of inhibition” value came to 18 millimeters in test [2] (setting [3]); 19 millimeters in test [2] (setting [4]); 19.5 millimeters in test [2] (setting [5]); 18.5 millimeters in test [2] (setting [6]); 26 millimeters in test [1] (setting [7]); 26 millimeters in test [1] (setting [8]). For the same compound, the “Diameters of zones of inhibition” value in test [1] (setting [9]) worked out at 27 millimeters; in test [1] (setting [3]) it was 25 millimeters; in test [1] (setting [4]), 29 millimeters; in test [1] (setting [5]), 29.5 millimeters; in test [1] (setting [10]), 26.5 millimeters; in test [1] (setting [11]), 30 millimeters. Further, the “Diameters of zones of inhibition” value in test [1] (setting [12]) was determined as 33 millimeters; in test [1] (setting [13]), 24 millimeters.

`CC(C)=CCC/C(C)=C/CO` [geraniol]: the “zone size, ciprofloxacin 5 μg disc” value in test [1] amounted to 23 mm.

In the case of `C=C(C)[C@H]1CC=C(C)CC1` [limonene], in test [1], the “zone size, ciprofloxacin 5 μg disc” value came out at 22 mm.

As to `C=CC(C)(O)CCC=C(C)C` (stereo not shown) [linalool], the “zone size, ciprofloxacin 5 μg disc” value in test [1] was 22.5 mm.

On to `CC(C)[C@@H]1CC[C@@H](C)CC1=O` [menthone], for which the “zone size, ciprofloxacin 5 μg disc” value in test [1] amounted to 23 mm.

In the case of `C=CC(=C)CCC=C(C)C` [myrcene], the “zone size, ciprofloxacin 5 μg disc” value in test [1] was determined as 21.5 mm.

On to `CC(C)=CCC/C(C)=C\CO` [nerol], for which the “zone size, ciprofloxacin 5 μg disc” value in test [1] is given as 22 mm.

Turning to `CN(C)[C@@H]1C(O)=C(C(N)=O)C(=O)[C@@]2(O)C(O)=C3C(=O)c4c(O)cccc4[C@@](C)(O)[C@H]3C[C@@H]12` [tetracycline], the “Diameters of zones of inhibition” value in test [2] (setting [3]) stood at 22.5 millimeters; in test [2] (setting [4]), 24 millimeters; in test [2] (setting [5]), 23.5 millimeters; in test [2] (setting [6]), 22 millimeters; in test [1] (setting [7]) it was 25.5 millimeters; in test [1] (setting [8]), 25 millimeters. Besides, the “Diameters of zones of inhibition” value in test [1] (setting [9]) worked out at 25.5 millimeters; in test [1] (setting [3]), 26 millimeters; in test [1] (setting [4]), 26 millimeters; in test [1] (setting [5]) it was 26.5 millimeters; in test [1] (setting [10]), 27.5 millimeters; in test [1] (setting [11]), 30 millimeters. Moreover, the entries for the “Diameters of zones of inhibition” value in test [1] (setting [12]) and in test [1] (setting [13]) were 32.5 millimeters and 21.5 millimeters, respectively.

With `CC(C)CCCC(C)CCO` (stereo not shown) [tetrahydrogeraniol], in test [1], the “zone size, ciprofloxacin 5 μg disc” value turned out to be 22.5 mm.

Turning to `CCC(C)(O)CCCC(C)C` (stereo not shown) [tetrahydrolinalool], the “zone size, ciprofloxacin 5 μg disc” value in test [1] was found to be 23 mm.

`CN[C@H](CC(C)C)C(=O)N[C@H]1C(=O)N[C@@H](CC(N)=O)C(=O)N[C@H]2C(=O)N[C@H]3C(=O)N[C@H](C(=O)N[C@H](C(=O)O)c4cc(O)cc(O)c4-c4cc3ccc4O)[C@H](O)c3ccc(c(Cl)c3)Oc3cc2cc(c3O[C@@H]2O[C@H](CO)[C@@H](O)[C@H](O)[C@H]2O[C@H]2C[C@](C)(N)[C@H](O)[C@H](C)O2)Oc2ccc(cc2Cl)[C@H]1O` [vancomycin]: the “Diameters of zones of inhibition” value is recorded as 17 millimeters in test [2] (setting [3]); 18 millimeters in test [2] (setting [4]); 18 millimeters in test [2] (setting [5]); 17 millimeters in test [2] (setting [6]); 19 millimeters in test [1] (setting [7]); 20 millimeters in test [1] (setting [8]). Moreover, the “Diameters of zones of inhibition” value is 20 millimeters in test [1] (setting [9]); 18 millimeters in test [1] (setting [3]); 19 millimeters in test [1] (setting [4]); 23.5 millimeters in test [1] (setting [5]); 20 millimeters in test [1] (setting [10]); 21 millimeters in test [1] (setting [11]). The “Diameters of zones of inhibition” value is 25 millimeters in test [1] (setting [12]) and 18 millimeters in test [1] (setting [13]).

Regarding `CC1=CC=C(C(C)C)CC1` [α-terpinene], in test [1], the “zone size, ciprofloxacin 5 μg disc” value is 22 mm.

On to gentamicin, for which the “Diameters of zones of inhibition” value in test [2] (setting [3]) worked out at 11 millimeters; in test [2] (setting [5]) it was 17.5 millimeters; in test [2] (setting [6]), 9 millimeters; in test [1] (setting [7]), 20 millimeters; in test [1] (setting [8]), 22 millimeters; in test [1] (setting [9]), 24 millimeters. Moreover, the “Diameters of zones of inhibition” value is on record as 21 millimeters in test [1] (setting [3]); 26 millimeters in test [1] (setting [5]); 23 millimeters in test [1] (setting [10]); 29 millimeters in test [1] (setting [11]); 35 millimeters in test [1] (setting [12]); 18.5 millimeters in test [1] (setting [13]).
